Assay results from patent US20170306385A1, “METHODS FOR DISCOVERING THERAPEUTICS THAT ALTER THE STABILITY OF TARGET PROTEINS” (Dana-Farber Cancer Institute, Inc., priority 2014, published 2017).
Where a SMILES comes first, the peptide text is derived from it. The star is where a group is joined. Cbz = O=C(OCc1ccccc1)*

Tests used:
Type in all cases: cell-based
fusion protein = assay: Western blot confirmation of fusion protein reduction by HSP90 inhibitors
[1] = tested on: unfused luciferases (renilla and firefly); assay: Stability time course for 7 MYC-luciferase fusion cell lines, unfused (untagged) luciferase
Description: (§1) Seven cell lines were used to measure the half life of the luciferases after blocking all protein synthesis with cyclohexamide. The decay observed for both fused luciferases (MYC-firefly and MYC-nanoluc; FIG. 12B) were compared to the decay observed for the unfused luciferases (renilla and firefly; FIG. 12A) using both the MYC-firefly:renilla and MYC-nanoluc:firefly cell lines 293T, U2OS and the MYC-firefly:renilla cell lines A549, H1299 and LS174T. […] MYC nanoluc half life of approximately 2 hours is longer than MYC-firefly half-life of less than 1 hour and closer to the half-life of untagged firefly. The balanced half-life of MYC-nanoluc and untagged firefly should reduce the number of artefact hits.
(§2) Seven MYC-luciferase reporter cell lines were used to measure changes in MYC-luciferase expression after blocking the proteasome with MG132. The expression of the unfussed renilla and firefly were unchanged for about 6 hours but decreased after 18 hours to a variable extent among cell lines (FIG. 13B).
(§3) Seven MYC-luciferase reporter cell lines were used to measure changes in MYC-luciferase expression after inhibition of ubiquitin dependent proteolysis with the neddylation inhibitor MLN-4924 (FIG. 14A-B).

[2] = tested on: MYC-luciferase fusion protein; assay: Stability time course for 7 MYC-luciferase fusion cell lines, fused (tagged) luciferase; conditions: for increase in MYC-luciferase fusion protein: all 7 cell lines
Description: as §1, §2, §3

COc1c(C)cnc(Cn2cnc3c(Cl)nc(N)nc32)c1C [BIIB021]
knockdown of protein levels by western blot (fusion protein): confirmed

CC(C)C[C@@H](C=O)NC(=O)[C@H](CC(C)C)NC(=O)[C@H](CC(C)C)NC(=O)OCc1ccccc1 [MG132] (Cbz-Leu-Leu-Leu-aldehyde)
expression of unfused renilla and firefly ([1]; MG132, after 18 hours, variable extent among cell lines): decreased | expression of unfused renilla and firefly ([1]; MG132, for about 6 hours): unchanged | increase in luciferase signals of MYC-nanoluc ([2]; MYC-nanoluc cell lines, MG132): about 4 fold | increase in MYC-luciferase fusion protein ([2]; proteasome blocked with MG132, different time course): ≥ 50%

NS(=O)(=O)OC[C@@H]1C[C@@H](n2ccc3c(N[C@H]4CCc5ccccc54)ncnc32)C[C@@H]1O [MLN-4924]
expression of unfused renilla and firefly ([1]; MLN-4924, except for the 293T MYC-firefly:renilla cell line): minimally affected | increase in MYC-luciferase fusion protein ([2]; MLN-4924, typically peaking after 6 hours of treatment): ≥ 50%

CC1(C)CC(=O)c2c(C(F)(F)F)nn(-c3ccc(C(N)=O)c(N[C@H]4CC[C@H](OC(=O)CN)CC4)c3)c2C1 [PF-04929113]
knockdown of protein levels by western blot (fusion protein): confirmed
